Assay results taken from publication PMC10221469 (Viruses, 2023).
Read-outs that look alike come from different tables or passages of the source.

Assays:
[1] = system: A549 ACE2+ cells; settings: 48 h, CellTiter-Glo
[2] = system: SARS-CoV-2; test: qPCR readout of viral replication in Vero E6 cells; assay type: cell-based; settings: Severe acute respiratory syndrome coronavirus 2, Vero C1008, viral replication by qPCR
[3] = system: SARS-CoV-2; test: microbe, parasite or virus in culture; assay type: cell-based; settings: Severe acute respiratory syndrome coronavirus 2, Vero C1008; read-out: CPE IC50
[4] = system: SARS-CoV-2; test: microbe, parasite or virus in culture; assay type: cell-based; settings: for IC50: read-out: IC50 (anti-viral activity)
[5] = target: SARS-CoV-2 nsp13 (Severe acute respiratory syndrome coronavirus 2, UniProt P0DTD1); test: biochemical; settings: 1 nM nsp13, 1 mM ATP, 15 min at 37 °C; unit printed in b45 only; read-out: IC50 nsp13 helicase unwinding activity
[6] = in vitro; settings: african green monkey
[7] = in vitro; settings: human, CC50, A549 ACE2+ cells, 48 h, CellTiter-Glo
[8] = system: SARS-CoV-2; test: microbe, parasite or virus in culture; assay type: cell-based; settings: Severe acute respiratory syndrome coronavirus 2, A549 ACE2+ cells, 48 h p.i., read-out: inhibition of viral titer (plaque reduction)
[9] = target: T1, serine protease TMPRSS2 (Homo sapiens, UniProt O15393); test: TMPRSS2 inhibition (Axxam S.p.A. proprietary assay); assay type: biochemical
T1 construct: Axxam S.p.A. (assay provider)

[10] = Severe acute respiratory syndrome coronavirus 2, A549-ACE2, 48 h
[11] = ratio of CC50 over IC50, A549 ACE2+ cells

T1 sequence (O15393 whole entry): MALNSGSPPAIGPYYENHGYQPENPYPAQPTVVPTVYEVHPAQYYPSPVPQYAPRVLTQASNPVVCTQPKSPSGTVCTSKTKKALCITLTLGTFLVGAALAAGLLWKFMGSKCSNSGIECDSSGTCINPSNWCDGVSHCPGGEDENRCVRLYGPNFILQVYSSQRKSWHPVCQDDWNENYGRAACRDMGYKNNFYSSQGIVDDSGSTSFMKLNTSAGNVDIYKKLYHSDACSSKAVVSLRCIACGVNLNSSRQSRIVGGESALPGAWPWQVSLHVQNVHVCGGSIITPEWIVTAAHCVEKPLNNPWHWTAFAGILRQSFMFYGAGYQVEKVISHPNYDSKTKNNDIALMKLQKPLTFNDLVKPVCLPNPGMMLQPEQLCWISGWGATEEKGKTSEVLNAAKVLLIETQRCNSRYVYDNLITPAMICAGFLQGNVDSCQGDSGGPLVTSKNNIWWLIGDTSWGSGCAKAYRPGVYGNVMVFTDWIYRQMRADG

Row | SMILES | CC50 [1] | IC50 [2] | IC50 [3] | SI (selectivity index) [4] | IC50 [4, 10] | IC50 [4] | IC50 [5] | CC50 [6] | CC50 [7] | inhibition at 1.25 µM ([8]; 1.25 µM) | inhibition at 2.5 µM ([8]; 2.5 µM) | IC50 [9] | inhibition at 0.019 µM [8] | inhibition at 0.039 µM [8] | SI (selectivity index) [4, 11] | inhibition at 0.009 µM ([8]; 0.009 µM)
1 | Nc1nc(N)c2nc(CNc3ccc(C(=O)N[C@@H](CCC(=O)O)C(=O)O)cc3)cnc2n1 [Aminopterin] | 2.49 µM | 0.08 µM | 0.33 µM | 1.9 | > 1.5 µM | 1.3 µM | 2.59 µM | > 33 µM | > 2 µM | – | – | – | – | – | – | –
2 | CN(Cc1cnc2nc(N)nc(N)c2n1)c1ccc(C(=O)N[C@@H](CCC(=O)O)C(=O)O)cc1 [Methotrexate hydrate] | – | 0.44 µM | 2.81 µM | – | 0.63 µM | – | 2.03 µM | > 33 µM | 1.18 µM | 94% | 98% | > 30 µM | – | – | – | –
3 | Nc1nc2[nH]cc(CCc3ccc(C(=O)N[C@@H](CCC(=O)O)C(=O)O)cc3)c2c(=O)[nH]1 [Pemetrexed disodium heptahydrate] | 2.43 µM | – | – | – | – | 5 µM | – | – | > 2 µM | – | – | – | – | – | – | –
4 | C#CCC(Cc1cnc2nc(N)nc(N)c2n1)c1ccc(C(=O)N[C@@H](CCC(=O)O)C(=O)O)cc1 (stereo partly drawn) [Pralatrexate] | – | 0.08 µM | 0.05 µM | 2 | 0.004 µM | – | 0.14 µM | > 33 µM | 0.008 µM | – | – | 0.45 µM | 90.4% | 96.5% | – | –
5 | Cc1nc2ccc(CN(C)c3ccc(C(=O)N[C@@H](CCC(=O)O)C(=O)O)s3)cc2c(=O)[nH]1 [Raltitrexed] | – | – | – | – | – | – | 3.22 µM | – | 0.89 µM | – | – | – | – | – | 0.2 | –
6 | CCC(CC)COC(=O)[C@H](C)N[P@](=O)(OC[C@H]1O[C@@](C#N)(c2ccc3c(N)ncnn23)[C@H](O)[C@@H]1O)Oc1ccccc1 [Remdesivir] | – | 3.2 µM | 2.74 µM | – | – | – | – | > 33 µM | – | – | – | – | – | – | – | –
7 | COc1cc(NCc2ccc3nc(N)nc(N)c3c2C)cc(OC)c1OC [Trimetrexate] | – | 0.08 µM | 0.34 µM | – | 0.007 µM | – | 1.56 µM | > 33 µM | 0.01 µM | – | – | > 30 µM | 97.5% | 96.5% | 1.4 | 86%
